According to paper PMC9919615, “Generation of Aurachin Derivatives by Whole-Cell Biotransformation and Evaluation of Their Antiprotozoal Properties” (Molecules, 2023):
Where two headings read alike, the source gives them in different places.

Assays:
T. cruzi Tulahuen C4 = experiment: Antitrypanosomal assay T. cruzi (beta-galactosidase reporter strain on rat skeletal myoblasts); assay type: cell-based, Trypanosoma cruzi; details: intracellular amastigotes, 4 days on rat skeletal myoblasts
Protocol: (§1) Serial dilution assays with 11 dilution steps in 96-well plates were used in order to determine the IC50 values of the generated aurachin D analogs against P. falciparum NF54 (erythrocytic stages), T. brucei rhodesiense STIB 900 (bloodstream forms), T. cruzi Tulahuen C4 (intracellular amastigotes) and L. donovani MHOM-ET-67/L82 (axenic amastigotes). Potential cytotoxic effects were evaluated with L6 myoblast cells (Table 2).
Activity against Trypanosoma cruzi was evaluated according to a procedure described by Buckner and coworkers. The strain Tulahuen C4 of T. cruzi, which had been transfected with the β-galactosidase lacZ gene, was cultivated for 4 days on rat skeletal myoblasts (5% CO2, 37 °C) in the presence of drug. For measurement of the IC50, the substrate chlorophenol red-β-D-galactopyranoside was added. The color reaction that developed during the following 2–4 h was quantified photometrically employing an ELISA reader. Benznidazole was included in each test series as positive control.

[1] = tested on: T. brucei rhodesiense STIB 900; experiment: Antitrypanosomal assay T. brucei rhodesiense (resazurin viability); assay type: cell-based, Trypanosoma brucei rhodesiense; details: read-out: IC50 T. brucei rhodesiense STIB 900
Protocol: as §1
Activity against Trypanosoma brucei rhodesiense (strain STIB 900) was evaluated according to a previously established protocol. Parasites were grown axenically in culture medium supplemented with horse serum. Following a 3-day exposure to test compounds, the viability of tryptomastigote parasites was quantified using the dye resazurin by monitoring the reductive environment of living cells. Fluorescence development was expressed as percentage of the control, and IC50 values were calculated. Melarsoprol was included as positive control.

P. falciparum NF54 = experiment: Antiplasmodial assay (3H-hypoxanthine incorporation); assay type: cell-based, Plasmodium falciparum; details: erythrocytic stages, 48 h drug exposure + 24 h with 3H-hypoxanthine
Protocol: as §1
Antiplasmodial activity was determined against the NF54 strain of Plasmodium falciparum using a modified ^3H-hypoxanthine incorporation assay. Briefly, infected erythrocytes were exposed to serial drug dilutions in microtiter plates for 48 h at 37 °C in a gas mixture with reduced oxygen and elevated carbon dioxide concentrations. ^3H hypoxanthine was added to each well, and after further incubation for 24 h, the wells were harvested on glass fiber filters and counted in a liquid scintillation counter. From the sigmoidal inhibition curve, the IC50 value was calculated. Chloroquine was used as positive control in each test series.

Rat Myoblast L6 Cells = experiment: Cytotoxicity assay with L6 cells (resazurin viability); assay type: cell-based
Protocol: as §1
Cytotoxicity was tested with L6 cells (ATCC CRL-1458), a […] cell line derived from rat skeletal myoblasts, as previously described. For this, L6 cells were grown in culture medium supplemented with heat-inactivated fetal bovine serum under an atmosphere of 5% CO2 in air. Following a 3-day exposure to test compounds, the viability of L6 cells was quantified using the dye resazurin by monitoring the reductive environment of living cells. Fluorescence development was expressed as percentage of the control, and IC50 values were calculated. Podophyllotoxin was used as reference.

[2] = tested on: L. donovani MHOM-ET-67/L82; experiment: Antileishmanial assay (axenic amastigotes, resazurin viability); assay type: cell-based, Leishmania donovani; details: 3-day exposure, pH 5.4
Protocol: Serial dilution assays with 11 dilution steps in 96-well plates were used in order to determine the IC50 values of the generated aurachin D analogs against P. falciparum NF54 (erythrocytic stages), T. brucei rhodesiense STIB 900 (bloodstream forms), T. cruzi Tulahuen C4 (intracellular amastigotes) and L. donovani MHOM-ET-67/L82 (axenic amastigotes). Potential cytotoxic effects were evaluated with L6 myoblast cells (Table 2). Evaluation of antileishmanial activity was carried out with axenically grown amastigotes of Leishmania donovani MHOM-ET-67/L82, as previously described. For this, the amastigotes were cultured at 37 °C and pH 5.4 in SM medium supplemented with 10% heat-inactivated fetal bovine serum under an atmosphere of 5% CO2 in air. Following a 3-day exposure to test compounds, the viability of amastigote parasites was quantified using the dye resazurin by monitoring the reductive environment of living cells. Fluorescence development was expressed as percentage of the control, and IC50 values were calculated. Miltefosine was used as positive control.

[3] = Trypanosoma cruzi, TULAHUEN, Myoblast, 96 h
[4] = Trypanosoma brucei, 72 h, bloodstream forms, 3-day exposure
[5] = Plasmodium falciparum, NF54, 72 h
[6] = Rattus norvegicus, L6, 72 h, cytotoxicity, 3-day exposure, read-out: IC50 Rat Myoblast L6 Cells
[7] = bloodstream forms, 3-day exposure
[8] = cytotoxicity, 3-day exposure, read-out: IC50 Rat Myoblast L6 Cells

| Compound | IC50 [1, 7] [µM] | IC50 (P. falciparum NF54) [µM] | IC50 (Rat Myoblast L6 Cells; [8]) [µM] | IC50 [2] [µM] | IC50 (T. cruzi Tulahuen C4) [µM] | further results |
| --- | --- | --- | --- | --- | --- | --- |
| O=C(Cn1ccnc1[N+](=O)[O-])NCc1ccccc1 [Benznidazole, reference compound] | – | – | – | – | – | IC50 (T. cruzi Tulahuen C4; [3]): 2.5 µM |
| CC(C)=CCC/C(C)=C/CC/C(C)=C/Cc1c(C)[nH]c2ccccc2c1=O [Compound 1, aurachin D] | – | – | – | – | – | IC50 [1, 4]: 4.5 µM; IC50 (P. falciparum NF54; [5]): 0.012 µM; IC50 (Rat Myoblast L6 Cells; [6]): 131 µM; IC50 (Rat Myoblast L6 Cells; Rattus norvegicus, L6, cytotoxicity, read-out: IC50 rat skeletal myoblasts): 131 µM; IC50 ([2]; Leishmania donovani, 72 h): 0.044 µM; IC50 (T. cruzi Tulahuen C4; [3]): 1.3 µM |
| CC(C)=CCC/C(C)=C/CC/C(C)=C/Cc1c[nH]c2ccccc2c1=O [Compound 2, 2-Desmethyl aurachin D] | 9.5 | 0.006 | 20.4 | 1.5 | 2.4 | – |
| CC(C)=CCC/C(C)=C/CC/C(C)=C/Cc1c(C)[nH]c2ccc(C)cc2c1=O [Compound 3, 6-Methyl aurachin D] | 43.2 | 0.514 | 18.6 | 4.3 | 7.6 | – |
| CC(C)=CCC/C(C)=C/CC/C(C)=C/Cc1c(C)[nH]c2cc(C)ccc2c1=O [Compound 4, 7-Methyl aurachin D] | – | – | – | – | – | IC50 [1, 4]: 164 µM; IC50 (P. falciparum NF54; [5]): 0.007 µM; IC50 (Rat Myoblast L6 Cells; [6]): 65.3 µM; IC50 ([2]; Leishmania donovani, 72 h): 9.1 µM; IC50 (T. cruzi Tulahuen C4; [3]): 45.7 µM |
| COc1ccc2[nH]c(C)c(C/C=C(\C)CC/C=C(\C)CCC=C(C)C)c(=O)c2c1 [Compound 5, 6-Methoxy aurachin D] | 40.3 | 0.866 | 118 | 7.3 | 19.3 | – |
| COc1ccc2c(=O)c(C/C=C(\C)CC/C=C(\C)CCC=C(C)C)c(C)[nH]c2c1 [Compound 6, 7-Methoxy aurachin D] | 44.8 | 0.089 | 80.8 | 17.1 | 21.9 | – |
| CC(C)=CCC/C(C)=C/CC/C(C)=C/Cc1c(C)[nH]c2ccc(F)cc2c1=O [Compound 7, 6-Fluoro aurachin D] | 37.2 | 0.061 | 126 | 0.617 | 1.8 | – |
| CC(C)=CCC/C(C)=C/CC/C(C)=C/Cc1c(C)[nH]c2ccc(Cl)cc2c1=O [Compound 8, 6-Chloro aurachin D] | 37.4 | 0.021 | 118 | 6.2 | 11.2 | – |
| CC(C)=CCC/C(C)=C/CC/C(C)=C/Cc1c(C)[nH]c2cc(Cl)ccc2c1=O [Compound 9, 7-Chloro aurachin D] | 105 | 0.07 | 54.7 | 9.2 | 41.8 | – |
| CC(C)=CCC/C(C)=C/CC/C(C)=C/Cc1c(C)[nH]c2ccc(Br)cc2c1=O [Compound 10, 6-Bromo aurachin D] | 40.2 | 0.119 | 108 | 13.9 | 22.6 | – |
| Nc1nc(N)nc(Nc2ccc([As]3SCC(CO)S3)cc2)n1 (stereo not shown) [Melarsoprol, reference compound] | – | – | – | – | – | IC50 ([1]; Trypanosoma brucei, 72 h): 0.013 µM |
| CCCCCCCCCCCCCCCCOP(=O)([O-])OCC[N+](C)(C)C [Miltefosine, reference compound] | – | – | – | – | – | IC50 ([2]; Leishmania donovani, 72 h): 0.732 µM |
| COc1cc([C@@H]2c3cc4c(cc3[C@H](O)[C@H]3COC(=O)[C@H]23)OCO4)cc(OC)c1OC [Podophyllotoxin, reference compound] | – | – | – | – | – | IC50 (Rat Myoblast L6 Cells; Rattus norvegicus, L6, 72 h, read-out: IC50 Rat Myoblast L6 Cells): 0.022 µM |
